Converted amounts (≈) assume the structure as drawn. One block for each compound: values may come before it.
Assays:
[1] = system: HCC70; experiment: cells; conditions: Homo sapiens, HCC70, 72 h
Description: Antiproliferative activity against human HCC70 cells assessed as inhibition of cell proliferation incubated for 72 hrs by celltiter-glo assay

[2] = Half life in female Balb/c nude mouse at 5 mg/kg, po; format: ADME, organism-based; conditions: in vivo
[3] = AUC(0 to t) in female Balb/c nude mouse at 5 mg/kg, po; format: ADME, organism-based; conditions: in vivo
[4] = system: OVCAR-3; experiment: cells; conditions: Homo sapiens, OVCAR-3, 72 h
Description: Antiproliferative activity against human OVCAR-3 cells assessed as inhibition of cell proliferation incubated for 72 hrs by celltiter-glo assay

[5] = biological target: Cyclin-dependent kinase 7/ cyclin H (Homo sapiens, UniProt P50613); experiment: Binding affinity to CDK7/CyclinH (unknown origin) assessed as dissociation constant by SPR assay; format: protein-complex assay
Sequence of Cyclin-dependent kinase 7/ cyclin H (P51946 whole entry): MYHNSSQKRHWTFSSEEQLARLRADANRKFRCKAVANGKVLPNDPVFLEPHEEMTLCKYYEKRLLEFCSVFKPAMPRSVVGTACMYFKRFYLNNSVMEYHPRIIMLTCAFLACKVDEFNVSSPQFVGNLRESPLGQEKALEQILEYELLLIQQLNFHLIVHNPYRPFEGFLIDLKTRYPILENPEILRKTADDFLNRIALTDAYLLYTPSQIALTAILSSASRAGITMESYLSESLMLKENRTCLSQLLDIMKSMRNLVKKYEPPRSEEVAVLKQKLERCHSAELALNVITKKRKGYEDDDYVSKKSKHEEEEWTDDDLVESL
Sequence of Cyclin-dependent kinase 7/ cyclin H (P50613 whole entry): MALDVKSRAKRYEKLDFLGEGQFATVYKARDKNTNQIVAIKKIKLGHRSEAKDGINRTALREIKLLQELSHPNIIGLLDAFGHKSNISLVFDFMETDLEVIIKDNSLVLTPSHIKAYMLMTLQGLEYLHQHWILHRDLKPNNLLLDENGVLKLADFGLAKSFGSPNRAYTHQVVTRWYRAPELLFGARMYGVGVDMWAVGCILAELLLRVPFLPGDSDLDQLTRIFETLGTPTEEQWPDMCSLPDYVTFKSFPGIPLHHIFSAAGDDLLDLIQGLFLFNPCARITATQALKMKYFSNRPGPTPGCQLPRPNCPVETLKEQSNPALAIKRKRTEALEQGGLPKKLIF

[6] = Permeability in human Caco-2 cells; format: ADME, cell-based; conditions: read-out: permeability
[7] = Oral bioavailability in female Balb/c nude mouse at 5 mg/kg; format: ADME, organism-based; conditions: in vivo
[8] = Volume of distribution at steady state in female Balb/c nude mouse at 1 mg/kg, iv; format: ADME, organism-based; conditions: in vivo, read-out: Vdss
[9] = Efflux ratio of permeability in human Caco-2 cells; format: ADME, cell-based
[10] = Clearance in female Balb/c nude mouse at 1 mg/kg, iv; format: ADME, organism-based; conditions: in vivo
[11] = Cmax in female Balb/c nude mouse at 5 mg/kg, po; format: ADME, organism-based; conditions: in vivo
[12] = biological target: CDK7/Cyclin H/MNAT1 (Homo sapiens, UniProt P50613); experiment: Inhibition of CDK7/CyclinH/MAT1 (unknown origin) in presence of ATP by kinase activity assay; format: protein-complex assay
Sequence of CDK7/Cyclin H/MNAT1 (P51946 whole entry): as the sequence (P51946 whole entry) above
Sequence of CDK7/Cyclin H/MNAT1 (P50613 whole entry): as the sequence (P50613 whole entry) above
Sequence of CDK7/Cyclin H/MNAT1 (P51948 whole entry, further chain): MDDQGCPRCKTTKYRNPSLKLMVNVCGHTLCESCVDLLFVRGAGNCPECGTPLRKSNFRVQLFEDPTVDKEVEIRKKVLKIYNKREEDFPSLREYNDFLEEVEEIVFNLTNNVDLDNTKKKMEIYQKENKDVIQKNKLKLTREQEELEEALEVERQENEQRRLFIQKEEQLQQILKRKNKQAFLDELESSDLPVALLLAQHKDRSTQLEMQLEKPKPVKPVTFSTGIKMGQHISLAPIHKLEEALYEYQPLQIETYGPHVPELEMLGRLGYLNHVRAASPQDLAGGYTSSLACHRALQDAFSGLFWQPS

[13] = Metabolic stability in mouse liver microsomes assessed as intrinsic clearance; format: ADME, Microsome; conditions: read-out: CLH
[14] = Half life in female Balb/c nude mouse at 10 mg/kg, po; format: ADME, organism-based; conditions: in vivo
[15] = Oral bioavailability in female Balb/c nude mouse at 10 mg/kg; format: ADME, organism-based; conditions: in vivo
[16] = AUC(0 to infinity) in female Balb/c nude mouse at 1 mg/kg, iv; format: ADME, organism-based; conditions: in vivo
[17] = AUC(0 to infinity) in female Balb/c nude mouse at 10 mg/kg, po; format: ADME, organism-based; conditions: in vivo
[18] = Cmax in female Balb/c nude mouse at 10 mg/kg, po; format: ADME, organism-based; conditions: in vivo
[19] = Drug concentration in rat plasma at 5 mg/kg, po measured after 0.5 hrs; format: ADME, organism-based
[20] = AUC(0 to t) in human HCC70 cells xenografted in female nu/nu mouse plasma at 1 mg/kg, po administered once daily; format: ADME, organism-based
[21] = Cmax in human HCC70 cells xenografted in female nu/nu mouse plasma at 1 mg/kg, po administered once daily; format: ADME, organism-based
[22] = Volume of distribution at steady state in dog at 1 mg/kg, iv; format: ADME, organism-based, Canis lupus familiaris; conditions: in vivo, read-out: Vdss
[23] = Toxicity in female nu/nu mouse xenografted with human HCC70 cells assessed as body weight loss at 1 to 10 mg/kg, po administered once daily and measured for 4 weeks; format: organism-based; conditions: in vivo, 672 h, dose 1-10 mg/kg
[24] = Metabolic stability in human liver microsomes assessed as intrinsic clearance; format: ADME, Microsome; conditions: read-out: CLH
[25] = system: OVCAR-3; experiment: Antitumor activity against human OVCAR-3 cells xenografted in female Balb/c nude mouse assessed as tumor growth inhibition at 2 mg/kg, po administered once daily and measured on day 22; format: functional; conditions: OVCAR-3, 528 h, time 22 day, read-out: TGI
[26] = Cmax in rat at 5 mg/kg, po; format: ADME, organism-based; conditions: in vivo
[27] = Oral bioavailability in mouse at 5 mg/kg; format: ADME, organism-based; conditions: in vivo
[28] = Half life in mouse at 1 mg/kg, iv; format: ADME, organism-based; conditions: in vivo, iv, 1 mg/kg
[29] = Cmax in mouse at 5 mg/kg, po; format: ADME, organism-based; conditions: in vivo
[30] = Volume of distribution at steady state in mouse at 1 mg/kg, iv; format: ADME, organism-based; conditions: in vivo, iv, 1 mg/kg
[31] = Clearance in rat at 1 mg/kg, iv; format: ADME, organism-based; conditions: in vivo
[32] = Half life in dog at 2 mg/kg, po; format: ADME, organism-based, Canis lupus familiaris; conditions: in vivo
[33] = AUC(0 to t) in mouse at 1 mg/kg, iv; format: ADME, organism-based; conditions: in vivo
[34] = biological target: hERG (Homo sapiens, UniProt Q12809); experiment: Inhibition of hERG at 10 uM relative to control; format: toxicity
Sequence of hERG (Q12809 whole entry): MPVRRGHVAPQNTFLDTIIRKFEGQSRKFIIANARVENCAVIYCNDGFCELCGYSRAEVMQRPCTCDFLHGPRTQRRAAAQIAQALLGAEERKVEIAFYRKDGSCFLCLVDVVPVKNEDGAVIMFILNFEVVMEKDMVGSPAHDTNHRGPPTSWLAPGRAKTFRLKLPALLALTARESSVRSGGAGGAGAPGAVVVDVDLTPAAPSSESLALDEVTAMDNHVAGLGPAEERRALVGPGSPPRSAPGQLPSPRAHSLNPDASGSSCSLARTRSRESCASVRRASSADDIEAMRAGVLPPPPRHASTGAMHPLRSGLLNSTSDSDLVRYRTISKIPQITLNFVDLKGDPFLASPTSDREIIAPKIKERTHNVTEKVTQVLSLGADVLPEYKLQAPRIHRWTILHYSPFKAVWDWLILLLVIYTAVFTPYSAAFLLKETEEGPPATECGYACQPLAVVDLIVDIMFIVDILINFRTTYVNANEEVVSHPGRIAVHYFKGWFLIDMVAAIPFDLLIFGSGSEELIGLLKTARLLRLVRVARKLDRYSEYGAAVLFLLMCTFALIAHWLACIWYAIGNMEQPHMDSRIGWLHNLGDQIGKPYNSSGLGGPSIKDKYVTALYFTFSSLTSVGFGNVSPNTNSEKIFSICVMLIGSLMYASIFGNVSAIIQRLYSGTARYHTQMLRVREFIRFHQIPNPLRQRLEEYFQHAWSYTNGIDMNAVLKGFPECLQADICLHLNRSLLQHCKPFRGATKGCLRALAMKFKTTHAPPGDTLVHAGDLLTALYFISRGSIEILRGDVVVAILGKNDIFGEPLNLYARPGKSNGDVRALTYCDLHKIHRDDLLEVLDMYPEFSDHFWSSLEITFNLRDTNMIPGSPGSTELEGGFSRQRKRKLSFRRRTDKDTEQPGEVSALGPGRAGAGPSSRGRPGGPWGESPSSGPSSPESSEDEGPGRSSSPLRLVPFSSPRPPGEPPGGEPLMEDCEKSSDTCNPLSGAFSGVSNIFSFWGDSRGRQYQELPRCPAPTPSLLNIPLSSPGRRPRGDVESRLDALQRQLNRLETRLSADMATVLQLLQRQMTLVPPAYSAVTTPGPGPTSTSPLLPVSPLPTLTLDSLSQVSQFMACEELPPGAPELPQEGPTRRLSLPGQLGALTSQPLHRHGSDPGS

[35] = Drug concentration in rat plasma at 5 mg/kg, po measured after 2 hrs; format: ADME, organism-based
[36] = AUC (0 to t) in dog at 1 mg/kg, iv; format: ADME, organism-based, Canis lupus familiaris; conditions: in vivo
[37] = AUC(0 to t) in mouse at 5 mg/kg, po; format: ADME, organism-based; conditions: in vivo
[38] = Drug concentration in rat small intestine at 5 mg/kg, po measured after 2 hrs; format: ADME, organism-based; conditions: read-out: Ct
[39] = AUC(0 to t) in rat at 1 mg/kg, iv; format: ADME, organism-based; conditions: in vivo
[40] = Plasma protein binding in rat assessed as unbound fraction; format: ADME, cell-free
[41] = Volume of distribution at steady state in rat at 1 mg/kg, iv; format: ADME, organism-based; conditions: in vivo, read-out: Vdss
[42] = Oral bioavailability in rat at 5 mg/kg; format: ADME, organism-based; conditions: in vivo
[43] = AUC (0 to t) in human OVCAR-3 cells xenografted in female Balb/c nude mouse plasma at 5 mg/kg, po administered once daily; format: ADME, organism-based
[44] = Drug concentration in rat plasma at 5 mg/kg, po measured after 8 hrs; format: ADME, organism-based
[45] = Half life in rat at 1 mg/kg, iv; format: ADME, organism-based; conditions: in vivo
[46] = AUC(0 to t) in rat at 5 mg/kg, po; format: ADME, organism-based; conditions: in vivo
[47] = AUC(0 to t) in dog at 2 mg/kg, po; format: ADME, organism-based, Canis lupus familiaris; conditions: in vivo
[48] = Oral bioavailability in dog at 2 mg/kg; format: ADME, organism-based, Canis lupus familiaris; conditions: in vivo
[49] = Half life in mouse at 5 mg/kg, po; format: ADME, organism-based; conditions: in vivo
[50] = system: HCC70; experiment: Antitumor activity against human HCC70 cells xenografted in female nu/nu mouse assessed as tumor growth inhibition at 1 mg/kg, po administered once daily and measured for 4 weeks; format: functional; conditions: HCC70, 672 h, read-out: TGI
[51] = Plasma protein binding in mouse assessed as unbound fraction; format: ADME, cell-free
[52] = Plasma protein binding in human assessed as unbound fraction; format: ADME, cell-free
[53] = Cmax in human OVCAR-3 cells xenografted in female Balb/c nude mouse plasma at 5 mg/kg, po administered once daily; format: ADME, organism-based
[54] = Half life in dog at 1 mg/kg, iv; format: ADME, organism-based, Canis lupus familiaris; conditions: in vivo
[55] = Solubility of compound at pH 7.4; format: physicochemical; conditions: buffer
[56] = Drug concentration in rat small intestine at 5 mg/kg, po measured after 0.5 hrs; format: ADME, organism-based; conditions: read-out: Ct
[57] = Clearance in dog at 1 mg/kg, iv; format: ADME, organism-based, Canis lupus familiaris; conditions: in vivo
[58] = Cmax in dog at 2 mg/kg, po; format: ADME, organism-based, Canis lupus familiaris; conditions: in vivo
[59] = Metabolic stability in rat liver microsomes assessed as intrinsic clearance; format: ADME, Microsome; conditions: read-out: CLH
[60] = Drug concentration in rat small intestine at 5 mg/kg, po measured after 8 hrs; format: ADME, organism-based; conditions: read-out: Ct

Structure (SMILES): CP(C)(=O)c1c2ccc3c(c[nH]c13)-c1nc(ncc1C(F)(F)F)N[C@H]1CC[C@@H](C1)NCCCCCCNC2=O
IC50 [1]: 422 nM

Structure (SMILES): CN1C[C@@H](F)CCN(C)[C@H]2CC[C@@H](C2)Nc2ncc(C(F)(F)F)c(n2)-c2c[nH]c3c(P(C)(C)=O)c(ccc23)C1=O
half-life [2]: 2.4 h
IC50 [1]: 66.5 nM
AUC(0-t) [3]: 365 ng·h/mL
IC50 [4]: 59.1 nM
Kd [5]: 0.12 nM
Papp [6]: 1.91 ×10⁻⁶ cm/s
bioavailability [7]: 24.3%
Vd [8]: 3.6 L/kg
efflux ratio [9]: 11.2
clearance [10]: 55.3 mL/min/kg
Cmax [11]: 170 ng/mL

Structure (SMILES): O=C1NCCOCCN2CC[C@@H](C2)Nc2ncc(C(F)(F)F)c(n2)-c2c[nH]c3cc1ccc23
IC50 [1]: 1820 nM
IC50 [12]: 11 nM

Structure (SMILES): CC1(C)CC[C@H](Nc2ncc(C(F)(F)F)c(-c3c[nH]c4c(P(C)(C)=O)c(C#N)ccc34)n2)CN1 [SY-5609]
concentration at 0.5 h [19]: 13.4 ng/mL
AUC(0-t) [20]: 138 ng·h/mL
Cmax [21]: 33.5 ng/mL
Vd [22]: 7.6 L/kg
Activity [23]: Non-toxic
CLint scaled [24]: 7.2 mL/min/kg
inhibition in vivo at 2 mg/kg [25]: 110%
Cmax [26]: 76 ng/mL
CLint scaled [13]: < 26.7 mL/min/kg
IC50 [1]: 72 nM
bioavailability [27]: 94.3%
t1/2 [28]: 0.6 h
Cmax [29]: 339 ng/mL
Vdss [30]: 5.9 L/kg
clearance [31]: 67.5 mL/min/kg
half-life [32]: 6.6 h
AUC(0-t) [33]: 406 ng·h/mL
Papp [6]: 2.54 ×10⁻⁶ cm/s
inhibition at 10 µM [34]: 37.1%
concentration at 2 h [35]: 69.3 ng/mL
AUC(0-t) [36]: 1110 ng·h/mL
AUC(0-t) [37]: 1920 ng·h/mL
concentration at 2 h [38]: 5030 ng/g
AUC(0-t) [39]: 247 ng·h/mL
fraction unbound [40]: 0.163
Vd [41]: 16.9 L/kg
bioavailability [42]: 89.7%
AUC(0-t) [43]: 387 ng·h/mL
concentration at 8 h [44]: 43.1 ng/mL
half-life [45]: 3.2 h
AUC(0-t) [46]: 920 ng·h/mL
AUC(0-t) [47]: 1460 ng·h/mL
bioavailability [48]: 65.8%
half-life [49]: 2.7 h
inhibition in vivo at 1 mg/kg [50]: 48.8%
fraction unbound [51]: 0.065
fraction unbound [52]: 0.142
Cmax [53]: 80 ng/mL
half-life [54]: 6.9 h
solubility [55]: 172 µg/mL (≈ 351 µM)
concentration at 0.5 h [56]: 2500 ng/g
clearance [57]: 14.5 mL/min/kg
Cmax [58]: 123 ng/mL
CLint scaled [59]: 4.3 mL/min/kg
concentration at 8 h [60]: 842 ng/g

The next lines start with results.

CLint scaled [13]: < 13.4 mL/min/kg
half-life [14]: 2 h
Kd [5]: 0.06 nM
Papp [6]: < 0.48 ×10⁻⁶ cm/s
bioavailability [15]: 22.8%
Vd [8]: 12 L/kg
AUC(0-inf) [16]: 163 ng·h/mL
AUC(0-inf) [17]: 412 ng·h/mL
efflux ratio [9]: > 35.8
Cmax [18]: 89.4 ng/mL
clearance [10]: 95.9 mL/min/kg
Structure (SMILES): CP(C)(=O)c1c2ccc3c(c[nH]c13)-c1nc(ncc1C(F)(F)F)N[C@H]1CC[C@@H](C1)NCCOCCNC2=O
IC50 [1]: 29 nM

Kd [5]: 0.14 nM
IC50 [12]: 4.6 nM
Structure (SMILES): O=C1NCCCCN[C@@H]2CC[C@H](C2)Nc2ncc(C(F)(F)F)c(n2)-c2c[nH]c3cc1ccc23
IC50 [1]: 207 nM

From ChEMBL document CHEMBL6092221, “Discovery of a Novel Macrocyclic Noncovalent CDK7 Inhibitor for Cancer Therapy” (J Med Chem, 2024)
